Where a SMILES comes first, the peptide text is derived from it. [ ]: non-standard residue; d: D form. The star is where a group is joined. 5FAM = O=C1OC2(c3ccc(O)cc3Oc3cc(O)ccc32)c2ccc(C(=O)*)cc21; pS = N[C@@H](COP(=O)(O)O)C(=O)O; Ahx = NCCCCCC(=O)O
Legend:
Assay type in all cases: binding
14‐3‐3 τ = biological target: T1, 14‐3‐3 τ (Homo sapiens, UniProt P27348); assay: Fluorescence anisotropy direct titration, 14‐3‐3τ; conditions: FA direct titration; FAM‐Ahx tracer peptide 50 nM; HEPES/NaCl/Tween 20/BSA pH 7.4; 1:1 fit; n = 3; read-out: K d, 14‐3‐3 τ
T1 construct: full‐length proteins were concentrated by centrifugation, rebuffered in HEPES buffer; made in house; host or cells: E. coli BL21(DE3)
T1 sequence (P27348 1-245): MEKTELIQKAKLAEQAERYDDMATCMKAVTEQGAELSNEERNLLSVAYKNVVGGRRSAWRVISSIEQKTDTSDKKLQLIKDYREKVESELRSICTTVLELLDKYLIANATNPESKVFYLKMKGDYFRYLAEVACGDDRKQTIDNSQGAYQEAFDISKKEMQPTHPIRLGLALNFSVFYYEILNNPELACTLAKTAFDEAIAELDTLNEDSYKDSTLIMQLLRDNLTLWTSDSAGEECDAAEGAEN
Excerpt: (§1) 14‐3‐3 proteins were titrated against a constant concentration of the tracer resulting in an increase of anisotropy upon engaging 14‐3‐3 proteins (Fig. 2A–C for 14‐3‐3 binding hDMX sequences and Figs S4–S6, for 14‐3‐3 binding hDM2 sequences, non‐binding sequence, and unphosphorylated controls). A noteworthy feature of the data is that different maximum anisotropy levels were observed between hDMX or hDM2 peptides and 14‐3‐3 isoforms, indicating different diffusion properties of the fluorophore when bound to the different 14‐3‐3 isoforms. […]
(§2) […]
(§3) All assays were performed in 384 well plates (each experiment was run in triplicates) and data were collected by Perkin Elmer EnVision […] plate reader with excitation at 480 nm (30 nm bandwidth), polarised dichroic mirror at 505 nm and emission at 535 nm (40 nm bandwidth, S and P polarised). […] A ½ fold dilution series was performed in the titration, with plates read after 30 min, 4 h and 20–24 h. […] Total intensity I and anisotropy r were calculated using Equations 1 and 2 for each well. […]

14‐3‐3 σ = biological target: T2, 14‐3‐3 σ (Homo sapiens, UniProt P31947); assay: Fluorescence anisotropy direct titration, 14‐3‐3σ; conditions: FA direct titration; FAM‐Ahx tracer peptide 50 nM; HEPES/NaCl/Tween 20/BSA pH 7.4; 1:1 fit; n = 3; read-out: K d, 14‐3‐3 σ
T2 construct: full‐length proteins were concentrated by centrifugation, rebuffered in HEPES buffer; made in house; host or cells: E. coli BL21(DE3)
T2 sequence (P31947 1-248): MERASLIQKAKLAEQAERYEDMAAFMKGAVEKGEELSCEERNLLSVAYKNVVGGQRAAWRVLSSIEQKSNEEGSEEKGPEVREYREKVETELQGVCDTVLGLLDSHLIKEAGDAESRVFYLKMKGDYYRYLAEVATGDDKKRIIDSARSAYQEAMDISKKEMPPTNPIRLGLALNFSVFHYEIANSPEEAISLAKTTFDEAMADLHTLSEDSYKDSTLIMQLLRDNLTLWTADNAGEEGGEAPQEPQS
Excerpt: as §1, §2, §3

14‐3‐3 ε = biological target: T3, 14‐3‐3 ε (Homo sapiens, UniProt P62258); assay: Fluorescence anisotropy direct titration, 14‐3‐3ε; conditions: FA direct titration; FAM‐Ahx tracer peptide 50 nM; HEPES/NaCl/Tween 20/BSA pH 7.4; 1:1 fit; n = 3; read-out: K d, 14‐3‐3 ε
T3 construct: full‐length proteins were concentrated by centrifugation, rebuffered in HEPES buffer; made in house; host or cells: E. coli BL21(DE3)
T3 sequence (P62258 1-255): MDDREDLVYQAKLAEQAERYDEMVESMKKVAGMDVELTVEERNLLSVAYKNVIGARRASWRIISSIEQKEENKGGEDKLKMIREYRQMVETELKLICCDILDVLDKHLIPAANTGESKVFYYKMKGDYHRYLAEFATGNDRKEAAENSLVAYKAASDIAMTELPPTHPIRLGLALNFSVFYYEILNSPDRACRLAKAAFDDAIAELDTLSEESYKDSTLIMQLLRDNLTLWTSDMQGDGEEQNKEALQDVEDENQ
Excerpt: as §1, §2, §3

`CC[C@H](C)[C@H](NC(=O)[C@H](CO)NC(=O)[C@H](CC(=O)O)NC(=O)[C@H](COP(=O)(O)O)NC(=O)[C@H](CCCCN)NC(=O)[C@H](Cc1c[nH]cn1)NC(=O)[C@H](CCCNC(=N)N)NC(=O)[C@H](CCCCN)NC(=O)[C@H](CCCNC(=N)N)NC(=O)[C@H](CCC(N)=O)NC(=O)CCCCCNC(=O)c1ccc2c(c1)C(=O)OC21c2ccc(O)cc2Oc2cc(O)ccc21)C(=O)N[C@@H](CO)C(=O)N[C@@H](CC(C)C)C(=O)N[C@@H](CO)C(N)=O` [hDM2_180‐192 ^pSer186] ({5FAM-Ahx}-QRKRHK[pS]DSISLS-NH2) was tested, and the Kd (14‐3‐3 τ) was > 250 µM, the Kd (14‐3‐3 σ) was > 170 µM and the Kd (14‐3‐3 ε) was > 260 µM.
